Laboratory results taken from PubChem BioAssay (NCI).
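Cells were grown in 96-well plates and exposed to each compound for 48 hours at five concentrations; endpoints were interpolated linearly between bracketing concentrations, or set to the highest concentration if not reached. TGI denotes the concentration required for complete inhibition of growth.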

What was measured:
Assay in all cases: inhibition of tumour cell growth, NCI panel, 48 h
786-0 renal = tested on: 786-0 renal
A498 renal = tested on: A498 renal
A549 NSCLC = tested on: A549 NSCLC
ACHN renal = tested on: ACHN renal
CAKI-1 renal = tested on: CAKI-1 renal
CCRF-CEM leukemia = tested on: CCRF-CEM leukemia
COLO 205 colon = tested on: COLO 205 colon
DLD-1 colon = tested on: DLD-1 colon
DMS 114 small cell lung = tested on: DMS 114 small cell lung
DMS 273 small cell lung = tested on: DMS 273 small cell lung
EKVX NSCLC = tested on: EKVX NSCLC
HCC-2998 colon = tested on: HCC-2998 colon
HCT-116 colon = tested on: HCT-116 colon
HCT-15 colon = tested on: HCT-15 colon
HL-60(TB) leukemia = tested on: HL-60(TB) leukemia
HOP-18 NSCLC = tested on: HOP-18 NSCLC
HOP-62 NSCLC = tested on: HOP-62 NSCLC
HOP-92 NSCLC = tested on: HOP-92 NSCLC
HT29 colon = tested on: HT29 colon
IGROV1 ovarian = tested on: IGROV1 ovarian
K-562 leukemia = tested on: K-562 leukemia
KM12 colon = tested on: KM12 colon
KM20L2 colon = tested on: KM20L2 colon
LXFL 529 NSCLC = tested on: LXFL 529 NSCLC
M14 melanoma = tested on: M14 melanoma
M19-MEL melanoma = tested on: M19-MEL melanoma
MALME-3M melanoma = tested on: MALME-3M melanoma
MOLT-4 leukemia = tested on: MOLT-4 leukemia
NCI-H226 lung = tested on: NCI-H226 lung
NCI-H23 lung = tested on: NCI-H23 lung
NCI-H460 lung = tested on: NCI-H460 lung
OVCAR-3 ovarian = tested on: OVCAR-3 ovarian
OVCAR-4 ovarian = tested on: OVCAR-4 ovarian
OVCAR-5 ovarian = tested on: OVCAR-5 ovarian
OVCAR-8 ovarian = tested on: OVCAR-8 ovarian
RPMI-8226 leukemia = tested on: RPMI-8226 leukemia
RXF 393 renal = tested on: RXF 393 renal
SF-268 CNS = tested on: SF-268 CNS
SF-295 CNS = tested on: SF-295 CNS
SF-539 CNS = tested on: SF-539 CNS
SK-MEL-2 melanoma = tested on: SK-MEL-2 melanoma
SK-MEL-28 melanoma = tested on: SK-MEL-28 melanoma
SK-MEL-5 melanoma = tested on: SK-MEL-5 melanoma
SK-OV-3 ovarian = tested on: SK-OV-3 ovarian
SN12C renal = tested on: SN12C renal
SNB-19 CNS = tested on: SNB-19 CNS
SNB-75 CNS = tested on: SNB-75 CNS
SNB-78 CNS = tested on: SNB-78 CNS
SW-620 colon = tested on: SW-620 colon
TK-10 renal = tested on: TK-10 renal
U251 CNS = tested on: U251 CNS
UACC-257 melanoma = tested on: UACC-257 melanoma
UACC-62 melanoma = tested on: UACC-62 melanoma
XF 498 CNS = tested on: XF 498 CNS

O=[N+]([O-])c1ccc(C2=Nn3c(nnc3-c3ccccc3)SC2)o1
TGI (786-0 renal): 40.7 µM
TGI (A498 renal): > 100 µM
TGI (A549 NSCLC): > 100 µM
TGI (ACHN renal): 33.8 µM
TGI (CAKI-1 renal): 35 µM
TGI (CCRF-CEM leukemia): 20.2 µM
TGI (COLO 205 colon): 49.9 µM
TGI (DLD-1 colon): 30.2 µM
TGI (DMS 114 small cell lung): 38.8 µM
TGI (DMS 273 small cell lung): 48.7 µM
TGI (EKVX NSCLC): > 100 µM
TGI (HCC-2998 colon): 35.7 µM
TGI (HCT-116 colon): 35.6 µM
TGI (HCT-15 colon): 38.2 µM
TGI (HL-60(TB) leukemia): 37.8 µM
TGI (HOP-18 NSCLC): 34.8 µM
TGI (HOP-62 NSCLC): > 100 µM
TGI (HOP-92 NSCLC): 34.1 µM
TGI (HT29 colon): 52.8 µM
TGI (IGROV1 ovarian): 47.6 µM
TGI (K-562 leukemia): > 100 µM
TGI (KM12 colon): 42.4 µM
TGI (KM20L2 colon): 53.5 µM
TGI (LXFL 529 NSCLC): 29.9 µM
TGI (M14 melanoma): 32 µM
TGI (M19-MEL melanoma): 41.1 µM
TGI (MALME-3M melanoma): 47.5 µM
TGI (MOLT-4 leukemia): 70.8 µM
TGI (NCI-H226 lung): > 100 µM
TGI (NCI-H23 lung): 42.8 µM
TGI (NCI-H460 lung): 41.6 µM
TGI (OVCAR-3 ovarian): 31.8 µM
TGI (OVCAR-4 ovarian): 41.5 µM
TGI (OVCAR-5 ovarian): 65.8 µM
TGI (OVCAR-8 ovarian): 45.9 µM
TGI (RPMI-8226 leukemia): > 100 µM
TGI (RXF 393 renal): 53.5 µM
TGI (SF-268 CNS): 42.8 µM
TGI (SF-295 CNS): 31.8 µM
TGI (SF-539 CNS): 39 µM
TGI (SK-MEL-2 melanoma): 49 µM
TGI (SK-MEL-28 melanoma): > 100 µM
TGI (SK-MEL-5 melanoma): 32.6 µM
TGI (SK-OV-3 ovarian): > 100 µM
TGI (SN12C renal): 32.4 µM
TGI (SNB-19 CNS): > 100 µM
TGI (SNB-75 CNS): 38.9 µM
TGI (SNB-78 CNS): 44.7 µM
TGI (SW-620 colon): 40.5 µM
TGI (TK-10 renal): 34.5 µM
TGI (U251 CNS): 33.7 µM
TGI (UACC-257 melanoma): 36.5 µM
TGI (UACC-62 melanoma): 36.3 µM
TGI (XF 498 CNS): 38.9 µM
